From US20200315950A1, “COMPOSITION FOR MODULATING THE GENES RESPONSIBLE FOR GENERAL SKIN FUNCTIONS, METHOD FOR MODULATING THE EXPRESSION OF GENES RESPONSIBLE FOR GENERAL SKIN FUNCTIONS, AND USE OF A PLANT EXTRACT” (Natura Cosmeticos S.A., priority 2016, published 2020)
Values joined by “and” are separate entries in the source; they are usually repeats but may differ in a detail not shown here. Equal values may be shown once.

Tested on: 180 genes in skin explants
Assay: Large scale gene expression profile assay (PCR array) in skin explants
Format: cell-based, human
Conditions: eyelid skin explants, 2 mg/cm^2 topical, 24 hours, threshold 30% increase or reduction
Procedure: A large scale gene expression profile assay (by PCR array) was performed of 180 genes in skin explants obtained subsequent to blepharoplasty and subjected to individual treatments with the present invention.
Initially, skin explants were obtained from the eyelids of females between 45 and 55 years of age, three (3) different donors of each age. The explants were split into halves and immediately inserted, in triplicate from each donor, into a culture medium and kept for 24 hours (half 1) and 72 hours (half 2) in a wet environment, at 37° C., 5% CO2. […]
Half (1) was collected and subjected to total RNA extraction. The quality of the extracted RNA was qualitatively (Bioanalyzer microcapillary electrophoresis) and quantitatively (Nanodrop spectrophotometer) assessed. […] The ΔCt values for the GAPDH (glyceraldehyde-3-phosphate dehydrogenase) reference gene and target gene were calculated by subtracting from each other the values for the experimental groups. […] Lastly, a relative quantification of the target genes was determined by using the equation: RQ=2−ΔΔCt. […] The statistical significance was assessed by using the t test followed by the Benjamini-Hochberg method (FDR—false discovery rate), which p-value<0.05 was considered significant. […]

With `C/C=C/C=C\CC/C=C/C(=O)NCC(C)C` [spilanthol sample, spilanthol] the “number of genes modulated as compared to the untreated control” value was 163 genes.
“hyaluronic acid [Hyaluronic Acid sample]” was tested, and the “number of genes modulated as compared to the untreated control” value was 162 genes and 146 genes.
